Reference: ChEMBL document CHEMBL3507680, “University of Dundee, Gates Library screen for HepG2 cell viability”

Test: Human HepG2 cell viability assay in 384 well format
Assay type: toxicity, cell-based
Parameters: dose 125 nL, time 70.5 hour; cytotoxicity at 70.5 h: concentration not given beside the values
Details: HepG2 cells, read-out: Inhibition

| Compound | cytotoxicity at 70.5 h [%] |
| --- | --- |
| Cn1cc(N2CCC3(CCN(S(=O)(=O)C4CC4)C3)C2=O)cn1 (centres undefined) | 4.38 |
| O=C1CC2(CCN(S(=O)(=O)C3CC3)C2)CN1c1cncnc1 (centres undefined) | 4.54 |
| CN1CCN(C(=O)[C@@H]2CCO[C@@H]3CCN(c4ncccn4)C[C@@H]32)CC1 | -3.98 |
| Cc1noc([C@@]23CCO[C@@H]2CCN(C(=O)c2sccc2C)C3)n1 | -1.6 |
| Cc1cccc(CN2C[C@@H]3CCCO[C@@H]3[C@H](NS(C)(=O)=O)C2)n1 | -3.48 |
| Cn1cc(N2CC3(CCN(S(=O)(=O)C4CC4)C3)CC2=O)cn1 (centres undefined) | -1.83 |
| Cc1cccc(CN2C[C@@H]3CN(C(=O)c4ccsc4)C[C@@H]3C2=O)c1 | -5.57 |
| CO[C@H]1CCN(c2ncccn2)[C@H]1Cc1ccccc1 | -6.47 |
| COCCC(=O)N1CCN(C)c2ncccc2C1 | -6.73 |
| Cc1nc(N2CCOCC2)nc2c1CN(C(=O)Cc1ccccn1)CC2 | -8.21 |
| Cc1cc(C(=O)NCC2COCc3c(C)nnn3C2)no1 (centres undefined) | -6.83 |
| Cc1nnn2c1COCC(CNC(=O)c1ccc3[nH]ccc3c1)C2 (centres undefined) | -9.06 |
| CNC(=O)[C@H]1C[C@@H]2CN(S(=O)(=O)c3ccccc3)C[C@@H]2N1C(C)=O | -3.07 |
| CNC(=O)N1C[C@H]2CC[C@@]3(N=C(c4ccccc4)NC3=O)[C@H]2C1 | -6.95 |
| NCC1Cn2nnc(-c3cccc(F)c3)c2CO1 (centres undefined) | -4.77 |
| CN(C)C(=O)NC[C@H]1OC[C@@H]2CCN(Cc3ccoc3)C[C@@H]21 | 52.3 |
| CC(C)NC(=O)N1CC[C@@H]2CN(Cc3cccc(Cl)c3)S(=O)(=O)[C@@H]2CC1 | 27 |
| Cc1ccc(CN2CCC3(CC(C(=O)NCC4CC4)=NO3)C2)cc1C (centres undefined) | 27.5 |
| Cc1ccc(NCc2cncc3c2CCN(C(=O)C2CC=CC2)C3)nn1 | -1.58 |
| Cc1noc(C)c1CN1CC[C@@H]2O[C@@H](COCC(C)C)CC[C@@H]21 | 3.11 |

| Compound | cytotoxicity at 70.5 h [%] |
| --- | --- |
| COc1ccc(CN2C[C@@H]3CCCO[C@@H]3[C@H](NS(C)(=O)=O)C2)cc1 | -9.16 |
| Cn1cccc1C(=O)N1CCCC2(CCN(CCN3CCCC3)C2=O)C1 (centres undefined) | -2.83 |
| CNC(=O)[C@H]1C[C@@H]2CN(S(=O)(=O)c3ccccc3)C[C@@H]2N1C | -8.21 |
| CS(=O)(=O)N1CC[C@H]2[C@H](C[C@@H](Cn3cncn3)N2CC2CC2)C1 | -1.14 |
| O=C(NC1CC1)[C@H]1CC[C@@H]2[C@@H](CCN2c2ncc(F)cn2)O1 | -11.8 |
| NC(=O)N1CCC2(CCN(Cc3cccc(F)c3)CC2)CC1 | -7.24 |
| O=C(NC1CC1)[C@@H]1CCO[C@@H]2CCN(C3CCOCC3)C[C@H]21 | -4.77 |
| Cn1cccc1C(=O)N1CCC2(CC1)CN(c1ccccn1)CCO2 | -5.53 |
| Cn1cc(CN2CCOC3(CCCN(C(=O)c4ccco4)C3)C2)cn1 (centres undefined) | -6.59 |
| O=C(NC1CC1)[C@@H]1CCO[C@@H]2CCN(C3CCOCC3)C[C@@H]21 | -8.31 |
| CC(C)CN1C[C@H]2CCN(c3ncccn3)CC[C@H]2S1(=O)=O | -12.5 |
| O=C(NCC1CC1)[C@@H]1CCO[C@@H]2CCN(Cc3ccco3)C[C@H]21 | 15.7 |
| O=C(Cc1cccnc1)N1CCC2(CC1)CCN(C1CCOCC1)C2 | -3.79 |
| O=C1N(c2cncnc2)CCC12CCCN(Cc1ccccn1)C2 (centres undefined) | -9.94 |
| CN(C)C(=O)COCc1cncc2c1CCN(Cc1cnn(C)c1)C2 | -8.65 |
| CN1CCN(Cc2cccnc2)C2(CCN(c3ncc(F)cn3)C2)C1=O (centres undefined) | -6.18 |
| Cn1cc(CN2CCC3(C2)CN(Cc2ccsc2)C3)cn1 | -6.34 |
| CC(=O)NCC(=O)N1CCn2cc(CN3CCN(C)CC3)nc2C1 | -11.5 |
| CN1CCc2onc(CNc3ncccn3)c2C1 | -25.4 |
